# According to patent US20100298557A1, “PYRAZOLOPYRIMIDINE COMPOUND” (Taisho Pharmaceutical Co., Ltd, priority 2006, published 2010):
# Assays:
# [1] = biological target: T1, Syk (Homo sapiens, UniProt P43405); test: Syk inhibition test; type: biochemical; settings: poly(L-glu-L-tyr) substrate, ATP 5 μM, [γ-33P]ATP, 30 minutes room temperature; read-out: Syk inhibitory activity IC50
# T1 construct: purchased Wako Pure Chemical Industries
# Description: 10 ng/10 μl/well of a Syk (Wako Pure Chemical Industries) solution, 15 μl of a poly(L-glu-L-tyr) substrate peptide solution (Sigma, final concentration 5 μM), 20 μl of an ATP mixture (ATP: Oriental Yeast, final concentration 5 μM, [γ-33P]ATP: GE Healthcare Biosciences, 0.1 μCi/well) and 5 μl of a test substance solution were added to a 96-well Corning reaction plate, followed by incubation at room temperature for 30 minutes. An assay buffer containing 50 mM Tris pH 7.5, 10 mM MgCl2, 0.1 mM Na3VO4, 1 mM DTT, 0.01% CHAPS and 100 μg/ml BSA was used. The test substance solution was made by dissolving the test substance in DMSO at each concentration. The final concentration of DMSO was 1%. The reaction was terminated by adding 100 μl of a 120 mM phosphoric acid solution as a reaction terminator. Then, the total reaction solution was transferred to MultiScreen (Millipore) and washed with 200 μl of 100 mM phosphoric acid four times.
# After drying, 20 μl of MicroScint-O (PerkinElmer) was added and the radioactivity was measured by TopCount (PerkinElmer). The ratio of the radioactivity when the test substance was added to the radioactivity when the test substance was not added was determined. The IC50 value was calculated from the inhibition rate at each concentration and used as an index of inhibitory activity.
# [2] = tested on: PCA reaction; test: Rat passive cutaneous anaphylaxis (PCA) test; type: in vivo; settings: male Wistar rats, oral administration four hours prior to antigen challenge, blue spot area
# Description: The back of seven-week-old male Wistar rats was clipped under light anesthesia with ether, and the rats were sensitized by intradermal administration of 100 μl of 25 ng/ml anti-dinitrophenyl-IgE (DNP-IgE) (Sigma) to the back. 24 hours after the sensitization, 1 ml of a 0.5% Evans blue solution containing 1 mg of DNP-BSA was intravenously administered. Further, 30 minutes after the administration, the rats were sacrificed and the back skin was collected. The test compound, or only a vehicle as a control, was orally administered four hours prior to the antigen challenge. The length and breadth of the skin blue spot were calipered, and the area of the blue spot was calculated as length×breadth. The PCA inhibition rate by the test substance was calculated by the following formula. In the formula, • C represents: a blue spot area by PCA reaction when only the vehicle was administered, and • X represents: a blue spot area by PCA reaction when the test compound was administered. Inhibition rate (%)=(C−X)×100/C
# [3] = biological target: T2, Abl (Homo sapiens, UniProt P00519); test: Abl inhibition test; type: biochemical; settings: Abltide substrate, ATP 6 μM, [γ-33P]ATP, 40 minutes room temperature; read-out: Abl inhibitory activity IC50
# T2 construct: purchased Wako Pure Chemical Industries
# Description: 5 ng/5 μl/well of an Abl (Wako Pure Chemical Industries) solution, 30 μl of an Abltide substrate peptide solution (Wako Pure Chemical Industries; final concentration 5 μM) and 5 μl of a test substance solution were added to a 96-well plate (Corning), followed by incubation at room temperature for 15 minutes. Then, 10 μl of an ATP mixture (ATP: Oriental Yeast, final concentration 6 μM, [γ-33P]ATP: GE Healthcare Biosciences, 0.06 μCi/well, MgAcetate: Cosmo Bio, final concentration 10 mM) was added, followed by incubation at room temperature for 40 minutes. The Abl solution was prepared using a kinase buffer (20 mM MOPS pH 7.0, 1 mM EDTA, 0.1% β-mercaptoethanol, 0.01% Brij-35, 5% glycerol, 1 mg/ml BSA). The substrate peptide solution and the ATP mixture were prepared using 8 mM MOPS pH 7.0 and 0.2 mM
# EDTA. The test substance solution was made by dissolving the test substance in DMSO at each concentration. The final concentration of DMSO was 1%. The reaction was terminated by adding 100 μl of a 100 mM phosphoric acid solution as a reaction terminator. Then, the total reaction solution was transferred to a 96-well MultiScreen plate (Millipore) and washed with 200 μl of 100 mM phosphoric acid three times. After drying, 20 μl of MicroScint-O (PerkinElmer) was added and the radioactivity was measured by TopCount (PerkinElmer). After subtracting the radioactivity in the well to which the Abltide substrate peptide was not added from each radioactivity, the ratio of the radioactivity when the test substance was added to the radioactivity when the test substance was not added was determined. The IC50 value was calculated from the inhibition rate at each concentration and used as an index of inhibitory activity.
# [4] = tested on: Human mast cell line LAD cells; test: Degranulation test using human mast cell line LAD cells; type: cell-based; settings: IgE-sensitized LAD cells, anti-human IgE stimulation, β-hexosaminidase release, read-out: degranulation inhibitory activity IC50
# Description: Human mast cell line LAD cells were sensitized with human IgE (Cosmo Bio; final concentration 1 μg/ml) overnight. The cells were harvested, and then washed with PBS (Invitrogen) and washed again with Tyrode's buffer solution (Sigma) containing 0.1% BSA (Sigma). The cells were seeded into a 96-well plate at 10^5 cells/well and then the compound (0.1% final concentration DMSO solution) was added, followed by incubation at 37° C. for 15 minutes. Rabbit anti-human IgE (Dako Japan; final concentration 10 μg/ml) or control Ig (Dako Japan; final concentration 10 μg/ml) was added, followed by incubation at 37° C. for 30 minutes. The supernatant was recovered and p-nitrophenyl-2-acetamido-2-deoxy-β-D-glucopyranoside (Sigma; final concentration 4 mM), a substrate of β-hexosaminidase which is an index of degranulation, was added, followed by incubation at 37° C. for 45 minutes. Glycine (Wako; final concentration 0.2 M, pH 10.4) was added and the reaction was terminated. Then, the absorbance at 405 nm was measured.
# The inhibition rate (%) was calculated as (anti-IgE antibody degranulation rate—compound-added group degranulation rate)/(anti-IgE antibody degranulation rate—control antibody degranulation rate)×100. The IC50 value was calculated from the inhibition rate at each concentration and used as an index of inhibitory activity.
# [5] = tested on: collagen-induced arthritis; test: Mouse collagen-induced arthritis (CIA) test; type: in vivo; settings: male DBA/1 mice, oral administration for 42 consecutive days, arthritis score
# Description: Seven-week-old male DBA/1 mice were sensitized by intradermal administration of bovine type II collagen/complete Freund's adjuvant emulsion (150 μg/0.1 ml/mouse) to the tail head. 21 days after the primary sensitization, the mice were similarly boosted by intradermal administration of bovine type II collagen/complete Freund's adjuvant emulsion (100 μg/0.1 ml/mouse) to the tail head. After the booster, the degree of arthritis was scored by observation for each extremity twice a week on the following scale. • 0: No arthritis • 1: Edema in one finger joint • 2: Edema in two or more finger joints or instep • 3: Edema in tarsus or ankle • 4: Severe edema or joint deformation Oral administration of the test compound, or only a vehicle as a control, was started 30 minutes prior to the booster, and administration was carried out for 42 consecutive days thereafter. For each day passed, the total score for the extremities was provided as an arthritis score for one individual (0 to 16), and the arthritis onset inhibitory effect was evaluated as an average value for eight cases using the vehicle-administered group as a control group.
# T2 sequence (P00519 whole entry, species assumed): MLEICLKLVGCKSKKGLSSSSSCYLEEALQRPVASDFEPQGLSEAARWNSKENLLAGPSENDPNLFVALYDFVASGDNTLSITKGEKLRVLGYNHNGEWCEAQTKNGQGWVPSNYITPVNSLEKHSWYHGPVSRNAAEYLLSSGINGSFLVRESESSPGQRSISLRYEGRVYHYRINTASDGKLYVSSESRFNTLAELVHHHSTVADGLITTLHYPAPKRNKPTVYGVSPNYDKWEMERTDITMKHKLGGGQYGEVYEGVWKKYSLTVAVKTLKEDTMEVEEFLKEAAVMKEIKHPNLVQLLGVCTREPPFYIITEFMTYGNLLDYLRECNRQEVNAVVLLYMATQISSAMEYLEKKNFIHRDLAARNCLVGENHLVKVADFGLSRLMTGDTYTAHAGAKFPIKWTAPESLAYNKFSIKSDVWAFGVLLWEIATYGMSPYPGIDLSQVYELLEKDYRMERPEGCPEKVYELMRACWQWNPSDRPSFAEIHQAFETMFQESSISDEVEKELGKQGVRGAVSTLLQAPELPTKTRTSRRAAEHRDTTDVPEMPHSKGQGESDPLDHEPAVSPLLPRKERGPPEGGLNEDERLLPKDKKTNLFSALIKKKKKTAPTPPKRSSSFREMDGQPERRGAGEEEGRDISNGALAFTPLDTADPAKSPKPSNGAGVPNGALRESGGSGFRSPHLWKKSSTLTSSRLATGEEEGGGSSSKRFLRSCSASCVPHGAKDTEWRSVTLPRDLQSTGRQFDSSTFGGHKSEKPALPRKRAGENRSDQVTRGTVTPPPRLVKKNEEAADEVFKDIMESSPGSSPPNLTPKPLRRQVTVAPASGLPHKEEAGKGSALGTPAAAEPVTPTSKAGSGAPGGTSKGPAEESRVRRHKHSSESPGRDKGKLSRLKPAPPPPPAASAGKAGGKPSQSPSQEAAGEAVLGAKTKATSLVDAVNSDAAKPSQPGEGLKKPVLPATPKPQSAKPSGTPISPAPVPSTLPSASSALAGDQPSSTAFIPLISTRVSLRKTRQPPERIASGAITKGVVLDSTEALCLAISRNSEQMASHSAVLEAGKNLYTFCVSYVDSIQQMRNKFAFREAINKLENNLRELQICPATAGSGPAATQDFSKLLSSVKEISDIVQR
IC50 [1] [nM],IC50 [3] [nM],SMILES,inhibition of PCA reaction [2],IC50 [4] [nM],inhibition of the onset of arthritis in the CIA model [5]
160,≤ 50,"CS(=O)(=O)c1n[nH]c2nc(Nc3ccc(N4CCOCC4)cc3)nc(NC3CC3)c12 [Compound 6, N^4-Cyclopropyl-3-(methylsulfonyl)-N^6-(4-morpholin-4-ylphenyl)-1H-pyrazolo[3,4-d]pyrimidine-4,6-diamine]",excellently inhibited PCA reaction,,
,,CS(=O)(=O)c1n[nH]c2nc(Nc3ccc(N4CCOCC4)cc3)nc(NC3CC3)c12 [Compound 7],,24,excellently inhibited the onset of arthritis
≤ 200,≤ 10,CS(=O)(=O)c1n[nH]c2nc(Nc3ccc(N4CCCC(C(=O)N5CCOCC5)C4)cc3)nc(NC3CC3)c12 (centres unmarked) [Compound 143],,≤ 100,
